These results are taken from PMC4890880 (ACS infectious diseases, 2016).

SMILES strings stand for the structures. Read-outs that look alike come from different tables or passages of the source.

Assay [1] concerns Plasmodium berghei (Pb-Luc) exoerythrocytic-stage parasites. Conditions: for normalised signal at concentration 10 (first series): concentration 10, first series of dose columns; for normalised signal at concentration 10 (second series): concentration 10, second series of dose columns; for IC50: read-out: PbLuc_IC50, Broad compounds, dose response top concentration 10; for IC50 / PbLuc_max_inhibition (%): sheet "2nd round".

Another assay has as its system HepG2-A16-CD81EGFP cells. Conditions: for IC50: read-out: Tox_IC50, HepG2 cytotoxicity.
The mark [2] stands for this setting: sheet 2nd round, maximal inhibition in dose response.

For `CC(C)[C@@H]1COCc2cnnn2CCC[C@H](C)C(=O)N1` [BRD-K01882341-001-02-9], in assay [1], the “normalised signal at concentration 0.000508053 (first series)” value is 0.8014, the “normalised signal at concentration 0.000508053 (second series)” value worked out at 0.9562, the “normalised signal at concentration 0.00152416 (first series)” value turned out to be 0.9047 and the “normalised signal at concentration 0.00152416 (second series)” value is on record as 0.8755. In assay [1], the “normalised signal at concentration 0.00457247 (first series)” value came out at 0.9797, the “normalised signal at concentration 0.00457247 (second series)” value is 1.034, the “normalised signal at concentration 0.0137174 (first series)” value was determined as 0.9629 and the “normalised signal at concentration 0.0137174 (second series)” value is on record as 0.9854. In assay [1], the “normalised signal at concentration 0.0411523 (first series)” value was 0.8726, the “normalised signal at concentration 0.0411523 (second series)” value stood at 0.8168, the “normalised signal at concentration 0.123457 (first series)” value is given as 0.9418 and the “normalised signal at concentration 0.123457 (second series)” value stood at 1.121. In assay [1], the “normalised signal at concentration 0.37037 (first series)” value worked out at 0.9345, the “normalised signal at concentration 0.37037 (second series)” value turned out to be 0.7926, the “normalised signal at concentration 1.11111 (first series)” value is recorded as 0.8828 and the “normalised signal at concentration 1.11111 (second series)” value turned out to be 0.9806. For the same molecule, in assay [1], the “normalised signal at concentration 3.33333 (first series)” value is given as 0.9641, the “normalised signal at concentration 3.33333 (second series)” value is given as 0.9379, the “normalised signal at concentration 10 (first series)” value came out at 1.091 and the “normalised signal at concentration 10 (second series)” value came out at 0.8693. In addition, in assay [1], the IC50 is greater than 10 µM and the “PbLuc_max_inhibition (%)” value stood at 21%. In addition, in the assay on HepG2-A16-CD81EGFP cells (sheet "2nd round"), the IC50 was greater than 10 µM and the “Tox_max_inhibition (%)” value amounted to 4.53%.

Turning to `COc1ccc(NC(=O)N(C)C[C@H]2Oc3c(NC(=O)CCCCCC(=O)Nc4ccccc4N)cccc3C(=O)N([C@@H](C)CO)C[C@H]2C)cc1` [BRD-K03339938-001-01-9], in assay [1], the “normalised signal at concentration 0.000508053 (first series)” value was 1.103, the “normalised signal at concentration 0.000508053 (second series)” value is 1.02, the “normalised signal at concentration 0.00152416 (first series)” value amounted to 0.9211 and the “normalised signal at concentration 0.00152416 (second series)” value came to 0.7891. Moreover, in assay [1], the “normalised signal at concentration 0.00457247 (first series)” value was 0.9975, the “normalised signal at concentration 0.00457247 (second series)” value amounted to 0.8582, the “normalised signal at concentration 0.0137174 (first series)” value was 0.9216 and the “normalised signal at concentration 0.0137174 (second series)” value was 0.8637. Besides, in assay [1], the “normalised signal at concentration 0.0411523 (first series)” value came out at 0.9804, the “normalised signal at concentration 0.0411523 (second series)” value worked out at 0.9024, the “normalised signal at concentration 0.123457 (first series)” value was determined as 0.8136 and the “normalised signal at concentration 0.123457 (second series)” value is listed as 0.9499. In assay [1], the “normalised signal at concentration 0.37037 (first series)” value was 0.9387, the “normalised signal at concentration 0.37037 (second series)” value came to 1.008, the “normalised signal at concentration 1.11111 (first series)” value was 0.9514 and the “normalised signal at concentration 1.11111 (second series)” value was determined as 0.9972. Besides, in assay [1], the “normalised signal at concentration 3.33333 (first series)” value is on record as 1.011, the “normalised signal at concentration 3.33333 (second series)” value came out at 1.0698, the “normalised signal at concentration 10 (first series)” value was found to be 1.4773 and the “normalised signal at concentration 10 (second series)” value is 1.187. In assay [1], the IC50 is greater than 10 µM and the “PbLuc_max_inhibition (%)” value stood at 21%. Moreover, in the assay with HepG2-A16-CD81EGFP cells (sheet "2nd round"), the IC50 was greater than 10 µM and the “Tox_max_inhibition (%)” value is on record as 4.46%.

In the case of `C[C@@H]1CCCCO[C@@H](CN(C)S(=O)(=O)c2ccccc2)[C@H](C)CN([C@H](C)CO)C(=O)c2cc(NC(=O)Nc3ccc4c(c3)OCO4)ccc2O1` [BRD-K87351697-001-01-4], the IC50 in the assay with HepG2-A16-CD81EGFP cells (sheet 2nd round) is greater than 10 µM. For the same molecule, the “Tox_max_inhibition (%)” value with HepG2-A16-CD81EGFP cells (setting [2]) is recorded as 5%.

As for `C[C@@H]1CN([C@@H](C)CO)C(=O)Cc2cc(NC(=O)C3CCCCC3)ccc2O[C@H]1CN(C)Cc1ccc(Cl)c(Cl)c1` [BRD-K87663528-001-01-7], in the assay with HepG2-A16-CD81EGFP cells (sheet "2nd round"), the IC50 was greater than 10 µM and the “Tox_max_inhibition (%)” value worked out at 58%.

For the molecule `CO[C@@H]1CN(C)C(=O)c2ccc(NC(=O)Nc3ccccc3F)cc2OC[C@@H](C)N(CC2CC2)C[C@H]1C` [BRD-K88085458-001-01-6], in the assay on HepG2-A16-CD81EGFP cells (sheet "2nd round"), the IC50 is greater than 10 µM and the “Tox_max_inhibition (%)” value was determined as 6%.

Regarding `CCCNC(=O)N1[C@H](C#N)[C@H](c2ccc(-c3ccccc3F)cc2)[C@H]1CO` [BRD-K88402291-001-01-4], in the assay on HepG2-A16-CD81EGFP cells (sheet "2nd round"), the IC50 was greater than 10 µM and the “Tox_max_inhibition (%)” value came out at 3%.

Consider `O=C(Nc1ccccc1F)N1CCCCN2[C@H](CO)[C@H](c3ccc(/C=C/c4ccccc4)cc3)[C@H]2C1` [BRD-K88581921-001-01-3], for which the IC50 in the assay with HepG2-A16-CD81EGFP cells (sheet 2nd round) is greater than 10 µM. In addition, the “Tox_max_inhibition (%)” value in the assay on HepG2-A16-CD81EGFP cells (setting [2]) was determined as 3%.

For the molecule `O=C(Nc1ccc(Cl)cc1)N1C[C@@H]2[C@H](c3ccccc31)[C@@H](CO)N2CC1CCCCC1` [BRD-K89605819-001-01-4], in the assay on HepG2-A16-CD81EGFP cells (sheet "2nd round"), the IC50 was greater than 10 µM and the “Tox_max_inhibition (%)” value is listed as 4.75%.

Turning to `N#C[C@@H]1[C@H](c2ccccc2C2=CCCCC2)[C@H](CO)N1S(=O)(=O)c1ccccc1` [BRD-K90570429-001-01-9], in the assay with HepG2-A16-CD81EGFP cells (sheet "2nd round"), the IC50 was greater than 10 µM and the “Tox_max_inhibition (%)” value was 8%.

`CO[C@@H]1CN(C)C(=O)c2ccc(NC(=O)NC(C)C)cc2OC[C@@H](C)N(Cc2ccccc2)C[C@H]1C` [BRD-K91191258-001-01-9]: the IC50 in the assay on HepG2-A16-CD81EGFP cells (sheet 2nd round) is greater than 10 µM. Also, the “Tox_max_inhibition (%)” value in the assay on HepG2-A16-CD81EGFP cells (setting [2]) is given as 9%.

In the case of `CN1C(=O)c2cc(NC(=O)c3ccc(C(F)(F)F)cc3)ccc2OC[C@H]2O[C@H](CC(=O)NCc3ccc4c(c3)OCO4)CC[C@@H]21` [BRD-K92009254-001-01-6], in the assay with HepG2-A16-CD81EGFP cells (sheet "2nd round"), the IC50 was found to be 8.97 µM and the “Tox_max_inhibition (%)” value was determined as 53%.

As to `Cc1ccccc1-c1ccc([C@@H]2[C@H](CO)N3CCCCN(S(=O)(=O)Cc4ccccc4)C[C@@H]23)cc1` [BRD-K92048968-001-01-1], in the assay with HepG2-A16-CD81EGFP cells (sheet 2nd round), the IC50 is greater than 10 µM. In the assay with HepG2-A16-CD81EGFP cells (setting [2]), the “Tox_max_inhibition (%)” value worked out at 7%.

For the molecule `C[C@@H]1CN([C@@H](C)CO)C(=O)c2cccc(NC(=O)c3cnccn3)c2O[C@@H]1CN(C)Cc1ccc(-c2ccccc2)cc1` [BRD-K92545585-001-01-9], the IC50 in the assay with HepG2-A16-CD81EGFP cells (sheet 2nd round) was greater than 10 µM. In addition, in the assay with HepG2-A16-CD81EGFP cells (setting [2]), the “Tox_max_inhibition (%)” value was found to be 4.65%.

As to `C[C@@H]1CCCCO[C@H](CN(C)S(=O)(=O)c2ccccc2)[C@@H](C)CN([C@@H](C)CO)C(=O)c2cc(NC(=O)Nc3ccc4c(c3)OCO4)ccc2O1` [BRD-K94107458-001-01-0], in the assay with HepG2-A16-CD81EGFP cells (sheet "2nd round"), the IC50 is greater than 10 µM and the “Tox_max_inhibition (%)” value stood at 5%.

Take `O=C(Nc1ccc(F)cc1)N1C[C@@H]2[C@H](c3ccccc31)[C@@H](CO)N2Cc1ccccc1Cl` [BRD-K95406835-001-01-9]: in the assay on HepG2-A16-CD81EGFP cells (sheet 2nd round), the IC50 was greater than 10 µM. Also, the “Tox_max_inhibition (%)” value in the assay on HepG2-A16-CD81EGFP cells (setting [2]) is 4.68%.

For `O=C(C1CC1)N1C[C@@H]2N[C@H](C1)C2c1ccc(-c2ccccc2F)cc1` (stereo partly shown) [BRD-K95724677-019-01-8], in the assay on HepG2-A16-CD81EGFP cells (sheet 2nd round), the IC50 was 3.72 µM. Also, in the assay with HepG2-A16-CD81EGFP cells (setting [2]), the “Tox_max_inhibition (%)” value came to 93%.

`C[C@@H]1CCCCO[C@@H](CN(C)Cc2ccc(Cl)c(Cl)c2)[C@@H](C)CN([C@@H](C)CO)C(=O)c2cc(NS(=O)(=O)c3cccs3)ccc2O1` [BRD-K97609851-001-01-5]: in the assay with HepG2-A16-CD81EGFP cells (sheet 2nd round), the IC50 is greater than 10 µM. Besides, the “Tox_max_inhibition (%)” value with HepG2-A16-CD81EGFP cells (setting [2]) amounted to 39%.

Consider `Cc1ccc(S(=O)(=O)N(C)C[C@H]2Oc3cc(C#CC4CCCC4)ccc3S(=O)(=O)N([C@@H](C)CO)C[C@H]2C)cc1` [BRD-K99467823-001-01-1], for which, in the assay with HepG2-A16-CD81EGFP cells (sheet 2nd round), the IC50 was greater than 10 µM. Further, in the assay on HepG2-A16-CD81EGFP cells (setting [2]), the “Tox_max_inhibition (%)” value stood at 31%.

In the case of `N#C[C@@H]1[C@H](c2ccccc2)[C@H](CO)N1C(=O)Nc1cccc(F)c1` [BRD-K99496840-001-01-9], the IC50 in the assay on HepG2-A16-CD81EGFP cells (sheet 2nd round) was greater than 10 µM. Also, the “Tox_max_inhibition (%)” value with HepG2-A16-CD81EGFP cells (setting [2]) was 4.23%.
